Assay [1] deals with T1, RNA-binding protein pos-1 (Caenorhabditis elegans, UniProt G5EF15).
T1 sequence (G5EF15 whole entry): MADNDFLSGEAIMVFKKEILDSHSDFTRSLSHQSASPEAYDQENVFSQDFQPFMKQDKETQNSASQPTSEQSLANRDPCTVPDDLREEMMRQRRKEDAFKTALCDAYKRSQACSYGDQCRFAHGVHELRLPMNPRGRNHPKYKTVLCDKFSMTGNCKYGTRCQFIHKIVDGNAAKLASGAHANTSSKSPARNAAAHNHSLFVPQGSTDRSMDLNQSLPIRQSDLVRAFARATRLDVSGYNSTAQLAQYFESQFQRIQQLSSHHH
The assay is described as follows: inhibitors of POS-1/mex-3 RNA binding, dose response, biochemical, fluorescence polarization (AID 1964). (In general: Polarisation of emitted light reports the rotation of a fluorescent probe.)

In assay [2] the target is Voltage-gated N-type calcium channel alpha-1B subunit/Amyloid beta A4 precursor protein-binding family A member 1 (Homo sapiens, UniProt Q00975+Q02410). It counts as protein assay.
Assay [3] deals with Heat shock 70 kDa protein 1A (Homo sapiens, UniProt P0DMV8). The assay can be described thus: Hsp70 inhibitors, SAR follow-up, biochemical, fluorescence polarization (AID 1072).
The next assay addresses Troponin, cardiac muscle (Homo sapiens, UniProt P19429+P45379+P63316). The assay is described as follows: inhibitors of cardiac thin filament calcium sensitivity, dose response, biochemical, fluorescence, cardiac regulated thin filaments, triplicate IC50 (AID 504742). Type of assay: protein-complex assay.
For assay [4], the target named is Glutathione-S-transferase (Schistosoma japonicum, UniProt Q26513). The assay can be described thus: biotin-GST/anti-GST TR-FRET signal inhibitors, dose response, artefact control for Vif-APOBEC3G degradation inhibitor project, biochemical (AID 1117362). It counts as functional.
In the next assay the test system is BJ. The assay can be described thus: cytotoxicity toward BJ-TERT-LT-ST fibroblasts, dose response, cell-based, RAS-independent, luminescence (AID 1935).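 Also: BJ fibroblasts immortalized with TERT plus LT and ST oncogenes.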 It counts as functional. To be noted: Homo sapiens.
A short description of assay [5]: cytotoxicity toward DRD oncogenic fibroblasts, dose response, cell-based, non-viral oncogenic, luminescence (AID 1934). It counts as functional. Conditions: Homo sapiens.
Assay [6] deals with Intestinal-type alkaline phosphatase (Mus musculus, UniProt P24822). The assay can be described thus: PubChem AID 488785. Type of assay: functional.
Assay [7] addresses T2, Alkaline phosphatase, tissue-nonspecific isozyme (Homo sapiens, UniProt P05186).
T2 sequence (P05186 whole entry): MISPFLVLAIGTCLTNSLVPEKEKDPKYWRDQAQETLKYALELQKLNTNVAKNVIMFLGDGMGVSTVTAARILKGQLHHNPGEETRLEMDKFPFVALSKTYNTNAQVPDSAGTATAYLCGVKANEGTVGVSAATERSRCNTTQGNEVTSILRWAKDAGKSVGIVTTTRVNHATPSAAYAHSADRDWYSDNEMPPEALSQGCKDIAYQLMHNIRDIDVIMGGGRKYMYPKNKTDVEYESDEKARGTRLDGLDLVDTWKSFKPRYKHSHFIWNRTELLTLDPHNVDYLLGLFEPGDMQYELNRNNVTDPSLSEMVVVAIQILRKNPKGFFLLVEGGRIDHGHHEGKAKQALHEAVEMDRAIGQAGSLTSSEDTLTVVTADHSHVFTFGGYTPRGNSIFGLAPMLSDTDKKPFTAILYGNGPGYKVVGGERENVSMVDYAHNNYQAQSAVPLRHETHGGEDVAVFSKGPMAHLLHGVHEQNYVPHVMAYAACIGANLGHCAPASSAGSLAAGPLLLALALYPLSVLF
The assay is described as follows: TNAP enzyme inhibition by screening hits, dose response, selectivity assay for mouse IAP inhibitor project, biochemical, human TNAP, uHTS hits (AID 488906). It counts as functional.

The target of another assay is T3, Aminopeptidase N (Plasmodium falciparum FcB1/Columbia, UniProt O96935).
T3 sequence (O96935 whole entry): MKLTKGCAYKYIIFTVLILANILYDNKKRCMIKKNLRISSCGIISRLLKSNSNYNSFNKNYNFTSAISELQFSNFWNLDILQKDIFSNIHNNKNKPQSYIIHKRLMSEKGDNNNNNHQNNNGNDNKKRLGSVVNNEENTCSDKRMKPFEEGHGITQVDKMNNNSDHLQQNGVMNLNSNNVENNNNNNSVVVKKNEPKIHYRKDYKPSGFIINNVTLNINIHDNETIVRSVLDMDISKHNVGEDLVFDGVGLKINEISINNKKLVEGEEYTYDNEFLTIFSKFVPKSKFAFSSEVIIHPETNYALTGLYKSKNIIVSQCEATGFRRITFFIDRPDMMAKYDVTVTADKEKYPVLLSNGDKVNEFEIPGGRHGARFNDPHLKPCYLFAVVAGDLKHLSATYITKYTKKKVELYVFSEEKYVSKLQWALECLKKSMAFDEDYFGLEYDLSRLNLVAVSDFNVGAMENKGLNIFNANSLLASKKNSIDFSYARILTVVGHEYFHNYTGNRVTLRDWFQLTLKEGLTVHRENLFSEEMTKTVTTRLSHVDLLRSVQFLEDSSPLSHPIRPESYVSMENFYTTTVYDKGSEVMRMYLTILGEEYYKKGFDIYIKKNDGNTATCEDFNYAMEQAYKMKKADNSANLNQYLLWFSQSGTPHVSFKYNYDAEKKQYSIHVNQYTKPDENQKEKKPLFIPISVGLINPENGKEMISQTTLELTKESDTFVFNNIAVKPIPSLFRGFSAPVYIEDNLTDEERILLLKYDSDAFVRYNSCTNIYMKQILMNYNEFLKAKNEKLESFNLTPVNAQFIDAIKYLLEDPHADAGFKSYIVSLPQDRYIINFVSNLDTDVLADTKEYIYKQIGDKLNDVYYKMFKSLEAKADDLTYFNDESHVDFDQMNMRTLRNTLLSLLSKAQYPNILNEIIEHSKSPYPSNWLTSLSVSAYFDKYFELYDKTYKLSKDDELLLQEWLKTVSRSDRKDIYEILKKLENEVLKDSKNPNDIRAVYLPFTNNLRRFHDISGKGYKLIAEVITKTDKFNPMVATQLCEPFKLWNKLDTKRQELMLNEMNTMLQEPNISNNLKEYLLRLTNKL
The assay can be described thus: P. falciparum M1AAP inhibitors, biochemical, fluorogenic H-Leu-NHMec substrate, 1536-well (AID 1445). More on the design: species or system Plasmodium falciparum 3D7, 3D7.

The target in another assay is Albumin (Bos taurus, UniProt P02769). The assay is described as follows: Counterscreen for inhibitors of T-cell receptor (TCR)-CD3 interaction: Fluorescence-based biochemical high throughput dose response assay to identify inhibitors of T-cell receptor (TCR)-CD3 interaction using a TAMRA-labeled BSA probe. Type of assay: functional. (Counterscreens check selectivity or assay interference.)

The target of assay [8] is Platelet-derived growth factor receptor beta (Homo sapiens, UniProt P09619). It counts as functional.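 Also: value comes from a kinome panel, with PDGFRB tested as one panel member.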
Assay [9] addresses MAP kinase-activated protein kinase 5 (Homo sapiens, UniProt Q8IW41). It counts as functional.
In assay [10] the target is Mitogen-activated protein kinase kinase kinase kinase 5 (Homo sapiens, UniProt Q9Y4K4). It counts as functional.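 Also: measured as one member of a kinome-spanning kinase panel.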
For assay [11], the target named is Calcium/calmodulin-dependent protein kinase type 1 (Homo sapiens, UniProt Q14012). Type of assay: functional.
For assay [12], the target named is Mitogen-activated protein kinase kinase kinase 10 (Homo sapiens, UniProt Q02779). The assay can be described thus: Navigating the Kinome. Panel member name: MAP3K10. Type of assay: functional.

The source made the active and inactive calls. A value given as a limit tells only on which side of the number the result lay.

Sequence of Mitogen-activated protein kinase kinase kinase 10 (Q02779 whole entry): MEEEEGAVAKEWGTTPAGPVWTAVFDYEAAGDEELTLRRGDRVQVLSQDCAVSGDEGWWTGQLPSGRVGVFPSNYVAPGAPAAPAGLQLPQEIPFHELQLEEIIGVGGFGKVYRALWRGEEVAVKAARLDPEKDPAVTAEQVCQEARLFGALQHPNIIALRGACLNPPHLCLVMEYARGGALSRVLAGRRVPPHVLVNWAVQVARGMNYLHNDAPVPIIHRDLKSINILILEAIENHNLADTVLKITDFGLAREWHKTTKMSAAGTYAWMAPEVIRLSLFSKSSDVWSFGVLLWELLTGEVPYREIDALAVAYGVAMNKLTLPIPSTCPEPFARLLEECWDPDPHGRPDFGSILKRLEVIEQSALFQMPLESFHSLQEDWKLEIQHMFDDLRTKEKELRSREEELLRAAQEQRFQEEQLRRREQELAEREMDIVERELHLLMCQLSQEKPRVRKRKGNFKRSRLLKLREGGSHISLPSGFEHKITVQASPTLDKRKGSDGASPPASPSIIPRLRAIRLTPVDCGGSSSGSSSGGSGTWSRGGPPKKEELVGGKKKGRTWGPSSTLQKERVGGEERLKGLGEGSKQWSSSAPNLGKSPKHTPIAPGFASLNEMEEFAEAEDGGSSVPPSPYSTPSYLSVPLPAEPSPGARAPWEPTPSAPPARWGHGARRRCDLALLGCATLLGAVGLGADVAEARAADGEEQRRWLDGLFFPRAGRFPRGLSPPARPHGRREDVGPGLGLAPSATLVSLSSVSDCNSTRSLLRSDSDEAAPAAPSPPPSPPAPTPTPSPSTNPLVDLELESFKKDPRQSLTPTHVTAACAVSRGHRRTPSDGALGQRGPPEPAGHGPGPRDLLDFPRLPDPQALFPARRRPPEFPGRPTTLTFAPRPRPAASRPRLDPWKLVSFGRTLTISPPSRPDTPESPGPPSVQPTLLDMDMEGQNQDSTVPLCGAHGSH
Sequence of Heat shock 70 kDa protein 1A (P0DMV8 whole entry): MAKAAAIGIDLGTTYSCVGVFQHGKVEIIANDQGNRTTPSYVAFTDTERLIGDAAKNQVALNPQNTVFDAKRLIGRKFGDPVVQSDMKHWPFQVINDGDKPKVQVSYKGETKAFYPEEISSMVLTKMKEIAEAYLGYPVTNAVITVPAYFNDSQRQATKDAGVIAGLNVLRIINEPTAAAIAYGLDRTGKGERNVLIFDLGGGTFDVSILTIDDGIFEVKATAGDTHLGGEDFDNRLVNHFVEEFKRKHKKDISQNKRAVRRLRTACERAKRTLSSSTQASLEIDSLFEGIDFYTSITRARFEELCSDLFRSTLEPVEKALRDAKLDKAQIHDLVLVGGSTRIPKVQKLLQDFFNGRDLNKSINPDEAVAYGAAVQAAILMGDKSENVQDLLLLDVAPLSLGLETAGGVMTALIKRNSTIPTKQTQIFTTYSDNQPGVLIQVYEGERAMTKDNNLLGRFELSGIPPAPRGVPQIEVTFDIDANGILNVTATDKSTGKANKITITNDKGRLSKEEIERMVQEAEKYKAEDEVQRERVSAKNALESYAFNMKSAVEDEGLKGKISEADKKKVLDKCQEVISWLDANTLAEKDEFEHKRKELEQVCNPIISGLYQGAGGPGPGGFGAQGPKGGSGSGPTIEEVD
Sequence of MAP kinase-activated protein kinase 5 (Q8IW41 whole entry): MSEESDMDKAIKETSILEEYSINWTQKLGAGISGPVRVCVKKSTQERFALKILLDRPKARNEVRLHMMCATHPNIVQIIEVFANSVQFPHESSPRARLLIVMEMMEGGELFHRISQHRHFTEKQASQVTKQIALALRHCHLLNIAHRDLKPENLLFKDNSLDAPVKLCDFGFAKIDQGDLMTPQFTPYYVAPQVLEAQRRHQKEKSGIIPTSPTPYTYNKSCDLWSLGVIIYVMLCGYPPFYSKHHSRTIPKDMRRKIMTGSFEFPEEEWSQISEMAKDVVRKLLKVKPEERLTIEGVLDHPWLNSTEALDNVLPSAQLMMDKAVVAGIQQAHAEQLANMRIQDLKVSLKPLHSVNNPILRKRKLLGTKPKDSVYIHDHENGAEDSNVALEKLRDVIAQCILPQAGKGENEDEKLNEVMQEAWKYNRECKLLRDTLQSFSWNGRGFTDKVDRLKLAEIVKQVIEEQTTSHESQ
Sequence of Platelet-derived growth factor receptor beta (P09619 whole entry): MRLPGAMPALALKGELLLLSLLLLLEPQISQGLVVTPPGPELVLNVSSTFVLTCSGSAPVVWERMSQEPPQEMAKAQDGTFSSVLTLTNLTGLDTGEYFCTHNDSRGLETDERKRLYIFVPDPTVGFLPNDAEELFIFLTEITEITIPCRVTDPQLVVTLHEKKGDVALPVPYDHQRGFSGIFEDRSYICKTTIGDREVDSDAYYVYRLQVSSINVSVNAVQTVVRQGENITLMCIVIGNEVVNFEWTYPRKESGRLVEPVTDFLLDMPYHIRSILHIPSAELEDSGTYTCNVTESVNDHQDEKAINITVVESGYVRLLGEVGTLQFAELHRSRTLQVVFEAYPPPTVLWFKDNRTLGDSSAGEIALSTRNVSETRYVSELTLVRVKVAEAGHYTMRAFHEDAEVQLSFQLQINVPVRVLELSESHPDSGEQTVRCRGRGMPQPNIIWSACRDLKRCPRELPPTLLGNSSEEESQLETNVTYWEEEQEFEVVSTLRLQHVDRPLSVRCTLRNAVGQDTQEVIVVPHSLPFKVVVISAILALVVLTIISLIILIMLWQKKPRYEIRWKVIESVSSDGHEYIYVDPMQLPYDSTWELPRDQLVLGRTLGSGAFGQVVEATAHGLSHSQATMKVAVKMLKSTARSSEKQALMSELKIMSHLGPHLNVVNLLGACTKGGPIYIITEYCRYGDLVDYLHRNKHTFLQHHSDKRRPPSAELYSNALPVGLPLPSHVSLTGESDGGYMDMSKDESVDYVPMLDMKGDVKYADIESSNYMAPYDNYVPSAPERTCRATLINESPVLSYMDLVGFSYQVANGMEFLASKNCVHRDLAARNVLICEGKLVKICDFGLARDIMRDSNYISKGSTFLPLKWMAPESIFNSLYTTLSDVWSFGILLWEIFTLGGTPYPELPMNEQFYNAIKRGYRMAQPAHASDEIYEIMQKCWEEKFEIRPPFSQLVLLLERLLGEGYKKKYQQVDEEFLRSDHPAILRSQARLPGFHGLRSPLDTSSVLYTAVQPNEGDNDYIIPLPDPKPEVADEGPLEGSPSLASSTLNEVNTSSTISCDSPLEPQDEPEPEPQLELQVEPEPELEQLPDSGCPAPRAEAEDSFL
Sequence of Intestinal-type alkaline phosphatase (P24822 whole entry): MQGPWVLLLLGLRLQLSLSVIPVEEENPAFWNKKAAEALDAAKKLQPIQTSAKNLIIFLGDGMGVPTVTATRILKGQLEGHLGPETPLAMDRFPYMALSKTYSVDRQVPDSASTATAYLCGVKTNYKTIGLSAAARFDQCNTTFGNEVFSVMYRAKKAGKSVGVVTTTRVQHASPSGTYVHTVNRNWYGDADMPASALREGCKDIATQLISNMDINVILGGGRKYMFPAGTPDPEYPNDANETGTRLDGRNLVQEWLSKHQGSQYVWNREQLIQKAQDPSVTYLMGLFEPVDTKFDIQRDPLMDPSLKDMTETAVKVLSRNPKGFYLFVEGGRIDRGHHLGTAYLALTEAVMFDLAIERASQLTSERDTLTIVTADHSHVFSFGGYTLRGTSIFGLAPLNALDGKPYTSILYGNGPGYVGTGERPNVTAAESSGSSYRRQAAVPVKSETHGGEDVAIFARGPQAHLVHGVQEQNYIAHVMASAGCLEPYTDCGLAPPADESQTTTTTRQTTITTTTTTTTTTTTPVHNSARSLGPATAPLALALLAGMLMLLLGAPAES
Sequence of Mitogen-activated protein kinase kinase kinase kinase 5 (Q9Y4K4 whole entry): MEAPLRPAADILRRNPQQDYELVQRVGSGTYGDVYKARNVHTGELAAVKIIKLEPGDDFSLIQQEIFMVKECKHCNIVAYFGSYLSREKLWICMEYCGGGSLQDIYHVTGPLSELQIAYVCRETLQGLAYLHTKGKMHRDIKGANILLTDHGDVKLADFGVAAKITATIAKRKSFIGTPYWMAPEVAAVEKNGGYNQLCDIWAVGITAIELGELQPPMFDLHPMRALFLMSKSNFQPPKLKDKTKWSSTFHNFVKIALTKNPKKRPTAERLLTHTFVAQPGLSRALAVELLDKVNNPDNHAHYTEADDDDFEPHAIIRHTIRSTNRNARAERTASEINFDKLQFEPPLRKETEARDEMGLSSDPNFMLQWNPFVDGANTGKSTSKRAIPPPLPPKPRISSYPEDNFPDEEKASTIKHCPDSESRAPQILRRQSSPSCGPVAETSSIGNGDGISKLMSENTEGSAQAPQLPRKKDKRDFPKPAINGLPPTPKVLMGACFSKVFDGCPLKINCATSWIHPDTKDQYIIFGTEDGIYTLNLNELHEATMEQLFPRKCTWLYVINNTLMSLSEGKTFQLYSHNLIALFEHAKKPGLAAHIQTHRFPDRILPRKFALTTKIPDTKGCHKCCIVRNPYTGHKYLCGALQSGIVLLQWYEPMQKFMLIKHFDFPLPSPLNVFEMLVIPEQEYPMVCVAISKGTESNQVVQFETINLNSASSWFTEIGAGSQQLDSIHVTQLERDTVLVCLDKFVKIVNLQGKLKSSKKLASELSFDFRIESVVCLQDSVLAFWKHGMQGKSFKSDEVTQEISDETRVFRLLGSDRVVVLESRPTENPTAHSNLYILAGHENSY
Sequence of Glutathione-S-transferase (Q26513 whole entry): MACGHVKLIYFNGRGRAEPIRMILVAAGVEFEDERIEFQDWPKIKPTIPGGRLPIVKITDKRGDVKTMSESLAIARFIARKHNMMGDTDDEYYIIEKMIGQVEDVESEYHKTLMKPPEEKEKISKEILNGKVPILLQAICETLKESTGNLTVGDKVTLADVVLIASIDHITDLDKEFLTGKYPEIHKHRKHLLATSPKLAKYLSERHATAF

On to `COc1cccc2c1NC(C(=O)O)C1CC=CC21` (stereo unspecified), for which the EC50 in assay [1] was 19.5 µM (inconclusive). The IC50 in assay [2] was 13.2 µM (active); in [3], 6.26 µM (active); at Troponin, cardiac muscle it was 27.7 µM (inactive); in assay [4], > 100 µM (active).
Consider `CCc1ccc(S(=O)(=O)/N=C2\C=C(Nc3ccc(O)cc3)C(=O)c3ccccc32)cc1`, for which the EC50 with BJ is 2.83 µM (active); in [5], 3.33 µM (active).
With `O=C1/C(=C\c2cccc(O)c2O)SC(=S)N1Cc1ccccc1`, the IC50 is 3.23 µM (active) in [6] and > 100 µM (inactive) in assay [7].
`Cc1cc([N+](=O)[O-])cc(/C=N\NC(=O)C2COc3ccccc3O2)c1O` (stereo unspecified): the results for the IC50 at Aminopeptidase N and at Albumin were 3.05 µM (active) and > 94.2 µM (inactive), respectively.
As for `COC(=O)c1c(N)nc2ccccn12`, in assay [8], the Ki is > 79.4 µM (inactive).
With `Cc1ccc(F)c(NC(=O)Nc2ccc(-c3cccc4[nH]nc(N)c34)cc2)c1` [LINIFANIB], the Ki in assay [9] is > 1.58 µM (inactive); in assay [10] it was 0.316 µM (active); in assay [11] it was 6.31 µM (active); in assay [12], > 3.16 µM (inactive).

For orientation: EC50 means the concentration giving half of the maximal effect. In general, IC50 refers to the point on the concentration scale where inhibition reaches its midpoint. For orientation: Ki means a dissociation constant, usually derived from enzyme kinetics or from competition with a known ligand.

The record behind these values is ChEMBL document CHEMBL1201862, “PubChem BioAssay data set” (2004).
